The source of these data is patent US7060277B2 (priority 1996, dated 2006).

Series [1] relates to SEB-mediated induction of IL-2, IFN-γ and/or TNF-β gene expression in PBMC. The series is classed as cell-based, human.
The conditions of series [2]: mouse, in vivo.
In the next series the test system is SEB-induced lethal shock. Details: species or system BALB/c mice. The conditions noted are these: mouse, in vivo.
For series [3] the following is noted: pig.
Series [4] relates to expression of IL-2 and IFN-γ genes in PBMC. In kind it is cell-based, human.
Series [5] has as its system induction of IL-2 / IFN-γ mRNA by TSST-1 in PBMC. In kind it is cell-based, human.

“Also recorded” adds a separate entry of the source. Square brackets hold non-standard residues; d marks the D form. Ends that are not written are not given here. Peptide text beside a SMILES is read from it.

As for “C Y N K K K A T V Q E L D C [Cys-p12(150–161)]”, in series [1], the “SEB antagonist activity, IL-2 and IFN-γ mRNA at 8 hrs” value is “significant SEB antagonist activity, even upon tenfold dilution”; the “SEB antagonist activity, overall comparison” value is “more powerful as antagonist than p12(150–161)”.

As to `CC(C)C[C@H](NC(=O)[C@H](CCC(=O)O)NC(=O)[C@H](CCC(N)=O)NC(=O)[C@@H](NC(=O)[C@@H](NC(=O)[C@H](C)NC(=O)[C@H](CCCCN)NC(=O)[C@H](CCCCN)NC(=O)[C@H](CCCCN)NC(=O)[C@H](CC(N)=O)NC(=O)[C@H](Cc1ccc(O)cc1)NC(=O)[C@@H](C)N)[C@@H](C)O)C(C)C)C(=O)N[C@@H](CC(=O)O)C(=O)N[C@H](C)C(=O)O` [p12A, daY N K K K A T V Q E L Dda] (H-[dA]YNKKKATVQELD[dA]-OH), in series [2], the “side effects in peptide-treated, SEB-challenged mice” value was “No side effects”; the “viability and side effects of mice exposed to peptide alone” value was “stayed fully viable and showed no detectable side effects”.

For “K K K V T A Q E L D (KKKVTAQELD) [pSEB(152–161)]”, the “antagonist activity, SEB-mediated IL-2 mRNA induction” value in series [1] was “pronounced antagonist activity”.

“YNKKKATVQELD [p12(150–161), Y N K K K A T V Q E L D]”: the “viability of PBMC cultured with peptide” value with PBMC is “undiminished viability”.

As to “TNKKKVTAQELD [pSEB(150–161), T N K K K V T A Q E L D]”, in the series on PBMC, the “viability of PBMC cultured with peptide” value was “undiminished viability”.

Take lpV Q Y N K K K A T V Q E L D [p14A-LP]: in the series on SEB-induced lethal shock, the “immunized mice that survived lethal SEB challenge” value is listed as “Ten out of 11” and the “immunized survivors that survived rechallenge with a double dose of SEB” value is 7 out of the 10.

“YNKKKATVQELDYNKKKATVQELIYNKKKATVQELD (YNKKKATVQELDYNKKKATVQELIYNKKKATVQELD) [Trimer]”: the “inhibition of induction of IL-2 and IFN-γ mRNA by SEB” value in series [1] was “strongly inhibitory”.

For the compound `CC(C)C[C@H](NC(=O)[C@H](CCC(=O)O)NC(=O)[C@H](CCC(N)=O)NC(=O)[C@@H](NC(=O)[C@@H](NC(=O)[C@H](C)NC(=O)[C@H](CCCCN)NC(=O)[C@H](CCCCN)NC(=O)[C@H](CCCCN)NC(=O)[C@H](CC(N)=O)NC(=O)[C@H](Cc1ccc(O)cc1)NC(=O)[C@H](CCC(N)=O)NC(=O)[C@@H](NC(=O)[C@@H](C)N)C(C)C)[C@@H](C)O)C(C)C)C(=O)N[C@@H](CC(=O)O)C(=O)N[C@H](C)C(=O)O` [p14A, daV Q Y N K K K A T V Q E L Dda] (H-[dA]VQYNKKKATVQELD[dA]-OH), the “toxin agonist activity in vivo” value in series [3] is listed as “without any detectable toxin agonist activity in vivo”. Also, in series [3] (in vivo), the “symptoms of incapacitation in pigs that received peptide alone” value is “failed to develop any symptoms of incapacitation”. Also, the “viability and side effects of mice exposed to peptide alone” value in series [2] was “stayed fully viable and showed no detectable side effects”.

On to “IDQFLYFDLIYSIKDTKLGNY (IDQFLYFDLIYSIKDTKLGNY) [pSEB(41–61)]”, for which, in series [1], the “block of induction of IL-2 and IFN-γ mRNA by SEB” value is “failed to block induction of IL-2 and IFN-γ mRNA by SEB”. For the same compound, in series [4], the “SEB agonist activity, induction of mRNA for IL-2 or IFN-γ by RNase protection” value is reported as “failed to show SEB agonist activity”.

“K K K A T V Q E L D (KKKATVQELD) [p10(152–161)]”: in series [1], the “antagonist activity, SEB-mediated IL-2 mRNA induction” value was “pronounced antagonist activity; also recorded: lower, yet still significant, antagonist activity” and the “inhibition of IL-2 gene induction by SEB” value is recorded as “up to 8 fold”.

Regarding “YNKKKATVQELDYNKKKATVQELI (YNKKKATVQELDYNKKKATVQELD; listed as Staphylococcus aureus) [Dimer]”, in series [1], the “SEB antagonist activity, overall comparison” value is “more powerful as antagonist than p12(150–161)”; the “inhibition of IFN-γ mRNA induction by SEB, peptide diluted 100-fold” value is “detectable inhibition”; the “inhibition of SEB-induced IL-2 and IFN-γ gene expression” value is given as “effective as antagonist”; the “inhibition of induction of IL-2 and IFN-γ mRNA by SEB” value is “strongly inhibitory”. In series [1], the “inhibition of induction of IL-2 mRNA by SEB” value was “inhibited”. The “inhibition of induction of IL-2 mRNA by TSST-1” value in series [5] is listed as “inhibited”.
